Source: patent US20210177805A1 (Ovid Therapeutics Inc., priority 2018, published 2021)

Legend:
[1] = human, in vivo
Procedure: Each subject was expected to complete all 6 treatment periods and there was a washout of at least 4 days between each treatment period.
Each oral dosing within Treatment Periods consisted of 2 capsules of test drug taken simultaneously at each scheduled dosing. […] Subjects received their study drug after an overnight fast with 240 mL of water in the morning about 8:00 AM. Water was permitted ad libitum except within 1 hour prior to and after study drug administration. No food was allowed for 4 hours post dose.

[2] = tested on: subjects with Angelman syndrome; assay: Sleep diary in patients with Angelman syndrome; assay type: in vivo, human; details: for 6-week LS Mean difference, total sleep time at night / 12-week LS Mean difference, total sleep time at night: change from baseline
From the text: The most notable change from patient sleep diaries was in the number of nights slept independently. In the QD dose cohort, one quarter of patients slept every night with parents, at 12 weeks, this had improved to only 1 in 5 nights; in the placebo group, the most effected quarter slept 3 of 4 nights with parents, which had improved to 2 of 4 nights at 12 weeks (P<0.001, Chi Square). The observed and change from baseline in total hours of sleep time at night (assessed from subject Sleep Diary) is provided in Table III.

[3] = tested on: subjects with Angelman syndrome; assay: Treatment-related and treatment-emergent adverse events in patients with Angelman syndrome
Procedure: This multicenter, randomized, parallel (3-arm), double-blind, placebo-controlled trial enrolled 88 patients including adults (n=66) and adolescents (n=22) aged 13 to 49 years of age, diagnosed with Angelman syndrome. […] The dosing schedules that were assessed against placebo were once daily (QD): An evening dose titrated to the target dose of 15 mg unless not tolerated; and twice daily (BID): Evening and morning doses titrated to the target doses of 15 mg evening dose and 10 mg morning dose unless not tolerated.
Gastrointestinal adverse events may be considered fundamental to the behavioral disturbances seen in autistic spectrum disorders, such as autism and Angelman syndrome.

[4] = tested on: subjects with Angelman syndrome; assay: Efficacy in patients with Angelman syndrome, Clinical Global Impressions (CGI-S, CGI-I); assay type: in vivo, human
From the text: CGI-S scale assessed all sub-domains of Angelman syndrome (gross and fine motor ability, sleep, and adaptive behavior) plus globally by the investigator. […] The Clinical Global Impressions-Improvement (CGI-I) scale was used to assess all sub-domains of Angelman syndrome (gross and fine motor ability, sleep, and adaptive behavior) plus globally by the investigator and caregiver. CGI-I is a 7-point scale in which the investigator rates the improvement or worsening of symptoms compared to baseline.
Moreover, the percentage who were very much improved on CGI-I in the QD group vs placebo went from 20% (vs. 11%) to 27% (vs. 9%) to 33% (vs. 0%) progressing from the oldest to youngest cohorts.

## Oc1noc2c1CCNC2 [gaboxadol, 4,5,6,7-tetrahydroisoxazolo [5,4-c]pyridine-3-ol]
[1]; iv, 10 mg
  CL (CL/F row, footnote for 10 mg IV): 438 mL/min
[1]; po
  AUC0-∞ Slope (90% CI), dose proportionality assessment: 0.98 (0.95, 1.01)
[2]; BID dosing (N = 29)
  6-week LS Mean sleep time (total sleep time at night, Sleep Diary): 8.95 (1.1) hours
  12-week LS Mean sleep time (total sleep time at night, Sleep Diary): 8.84 (1.1) hours
[2]; BID dosing
  6-week LS Mean difference, total sleep time at night: 0.30 (1.1) hours
  12-week LS Mean difference, total sleep time at night: 0.18 (0.97) hours
[2]; Combined (N = 58)
  6-week LS Mean sleep time (total sleep time at night, Sleep Diary): 8.93 (1.3) hours
  12-week LS Mean sleep time (total sleep time at night, Sleep Diary): 8.80 (1.1) hours
[2]; Combined
  6-week LS Mean difference, total sleep time at night: 0.22 (0.94) hours
  12-week LS Mean difference, total sleep time at night: 0.07 (1.0) hours
[2]; QD dosing (N = 29)
  6-week LS Mean sleep time (total sleep time at night, Sleep Diary): 8.91 (1.5) hours
  12-week LS Mean sleep time (total sleep time at night, Sleep Diary): 8.76 (1.2) hours
[2]; QD dosing
  6-week LS Mean difference, total sleep time at night: 0.14 (0.81) hours
  12-week LS Mean difference, total sleep time at night: −0.04 (1.1) hours
[3]; BID dosing (N = 29)
  Abdominal Pain upper, subjects (%): 0
  At least 1 Adverse Event, subjects (%): 19 (66%)^
  Diarrhea, subjects (%): 1 (3.4%)
  Gastrointestinal disorders, subjects (%): 4 (13.8%)
  Nausea, subjects (%): 2 (6.9%)
  Retching, subjects (%): 1 (3.4%)
  Vomiting, subjects (%): 1 (3.4%)
[3]; Combined (N = 58)
  Abdominal Pain upper, subjects (%): 0
  At least 1 Adverse Event, subjects (%): 37 (64%)^
  Diarrhea, subjects (%): 1 (1.7%)
  Gastrointestinal disorders, subjects (%): 4 (6.9%)
  Nausea, subjects (%): 2 (3.4%)
  Retching, subjects (%): 1 (1.7%)
  Vomiting, subjects (%): 1 (1.7%)
[3]; QD dosing (N = 29)
  Abdominal Pain upper, subjects (%): 0
  At least 1 Adverse Event, subjects (%): 18 (62%)
  Diarrhea, subjects (%): 0
  Gastrointestinal disorders, subjects (%): 0
  Nausea, subjects (%): 0
  Retching, subjects (%): 0
  Vomiting, subjects (%): 0
[4]; QD 15 mg evening dose, 7-point scale, vs. 3.8 placebo, p=0.0006
  CGI-I: 3.0
[4]; QD dosing (N = 29), clinician assessed, MMRM
  CGI-I 12-week LS Mean: 3.00 (0.16)
